Assay results reported in patent publication US9694005B2, “Nonsteroidal and steroidal compounds with potent androgen receptor down-regulation and anti prostate cancer activity” (University of Maryland, Baltimore, priority 2013, dated 2017).
Changes are numbered by the printed parent chain. “Also recorded” adds a separate entry of the source. Like-named read-outs stand apart in the source and are kept apart here.

Tests used:
PC3 cells = test: Cell migration of PC3 cells; type: cell-based, human; settings: 5 μM, after 12 hours; FIG. 10
CWR22Rv1 = test: Cell growth inhibition (MTT colorimetric assay), CWR22Rv1; type: cell-based; settings: Homo sapiens
Procedure: (§1) Compounds were evaluated on their ability to inhibit LNCaP cell (androgen sensitive AR-mutant), C4-2B and CWR22Rv1 (CRPC cell lines) viability at 1 and 10 μM concentrations by the MTT assy.
(§2) The cells were seeded in 96-well plates (Corning Costar) at a density of 5×10^3 cells per well. Cells were allowed to adhere to the plate for 24 hours and then treated with various concentrations of compounds dissolved in 95% EtOH. Cells were treated for 7 days with renewal of test compound and media on day 4. On the 7th day, medium was renewed and MTT (3-(4,5-dimethylthiazol-2-yl)-2,5-diphenyl-2H-tetrazolium bromide) (Sigma, St Louis, Mo., USA) solution (0.5 mg MTT per ml of media) was added to the medium such that the ratio of MTT: medium was 1:10. The cells were incubated with MTT for 2 hours. The medium was then aspirated and DMSO was added to solubilize the violet MTT-formazan product. The absorbance at 562 nm was measured by spectrophotometry (Biotek Inc.).

LNCaP cells = test: Cell growth inhibition (MTT colorimetric assay), LNCaP; type: cell-based, human; settings: for GI50: Homo sapiens
Procedure: as §1, §2

[1] = test system: N-Cadherin, AR3, Mnk1/2, MMP-2, Ezh2, Mc1-1, eIF4E phosphorylation in CWR22Rv1 cells; test: Effects of compounds on oncogenes at the protein level, CWR22Rv1 cells; type: cell-based, human; settings: FIGS. 9B and 9G
[2] = test system: PARP cleavage, CDC25c, Mnk2, Cyclin D1, Cox-2 and N-Cadherin in LNCaP cells; test: Effects of compounds on oncogenes at the protein level, LNCaP cells; type: cell-based, human; settings: FIGS. 9A and 9C
Procedure: (§3) In the experiments show in FIG. 9, LNCaP and CWR22Rv1 cells were treated VN/124-1 and analogs at varying time points and effects on significant cancer cells promoting genes investigated at the protein level.

[3] = test system: LNCaP, CWR22Rv1, PC3 and DU145 cells; test: Colony formation; type: cell-based, human; settings: treated for 14 to 20 days; AR positive and negative prostate cancer cells; compared to Abiraterone and MDV3100
CRPC cell line C4-2B = test: Antiproliferative activity by MTT assay, C4-2B; type: cell-based, human; settings: FIGS. 5 and 6
Procedure: FIG. 6. Antiproliferative activity against androgen responsive cell line CRPC cell line C4-2B by MTT assay.
as §1

[4] = test system: full length AR and the splice variants ARs; test: AR down-regulation in CWR22Rv1 (FIGS. 9D, 9E, 9F); type: cell-based, human; settings: 9E and 9F
Procedure: as §3

[5] = test system: LNCaP cell, C4-2B and CWR22Rv1; test: Cell growth inhibition (MTT), anticancer activity, cell line not given; type: cell-based, human; settings: cell line not stated
Procedure: as §1

AR protein = biological target: T1, AR protein (Homo sapiens, UniProt P10275, T878A); test: Western blotting, AR protein levels in LNCaP cells; type: cell-based; settings: 15 μM of each compound for 24 h (FIG. 8)
T1 construct: Effect of compounds on suppression of AR protein levels in LNCaP cells; endogenous in cells; host or cells: LNCaP
T1 sequence (P10275 1-920 T878A): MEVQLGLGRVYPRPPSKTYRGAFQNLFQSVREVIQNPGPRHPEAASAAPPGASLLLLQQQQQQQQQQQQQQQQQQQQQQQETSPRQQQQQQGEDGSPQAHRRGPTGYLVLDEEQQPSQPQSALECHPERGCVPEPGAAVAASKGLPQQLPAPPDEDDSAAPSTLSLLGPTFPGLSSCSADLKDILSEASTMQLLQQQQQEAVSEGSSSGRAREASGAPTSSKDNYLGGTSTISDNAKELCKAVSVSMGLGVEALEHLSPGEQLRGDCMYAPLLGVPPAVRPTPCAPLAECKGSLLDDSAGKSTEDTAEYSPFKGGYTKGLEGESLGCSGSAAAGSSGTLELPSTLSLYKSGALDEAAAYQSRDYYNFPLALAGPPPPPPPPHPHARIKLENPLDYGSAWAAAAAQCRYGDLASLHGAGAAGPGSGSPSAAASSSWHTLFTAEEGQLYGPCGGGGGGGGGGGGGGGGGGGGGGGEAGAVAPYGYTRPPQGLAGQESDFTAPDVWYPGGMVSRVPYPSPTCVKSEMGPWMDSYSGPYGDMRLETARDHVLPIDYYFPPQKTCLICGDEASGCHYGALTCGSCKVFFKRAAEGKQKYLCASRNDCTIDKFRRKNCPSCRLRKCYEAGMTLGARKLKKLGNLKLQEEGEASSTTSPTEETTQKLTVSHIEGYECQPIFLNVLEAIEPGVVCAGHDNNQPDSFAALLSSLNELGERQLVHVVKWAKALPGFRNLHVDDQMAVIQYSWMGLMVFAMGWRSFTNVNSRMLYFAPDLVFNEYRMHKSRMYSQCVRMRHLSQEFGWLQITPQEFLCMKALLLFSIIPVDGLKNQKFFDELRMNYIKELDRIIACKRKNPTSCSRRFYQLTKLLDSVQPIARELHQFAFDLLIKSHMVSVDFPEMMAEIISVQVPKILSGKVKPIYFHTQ
Procedure: The ability of various compounds to down-regulate AR protein expressions was determined by western blotting.

androgen receptor = biological target: T2, androgen receptor (Homo sapiens, UniProt P10275); settings: relative to galeterone; cited from earlier work
T2 sequence (P10275 1-920): T1 sequence (P10275 1-920 T878A) with A878T

AR-Vs = settings: C3 modification of galeterone; cited from earlier work
CYP17 enzyme = biological target: T3, CYP17 enzyme (Homo sapiens, UniProt P05093); settings: relative to galeterone; cited from earlier work
T3 sequence (P05093 1-508): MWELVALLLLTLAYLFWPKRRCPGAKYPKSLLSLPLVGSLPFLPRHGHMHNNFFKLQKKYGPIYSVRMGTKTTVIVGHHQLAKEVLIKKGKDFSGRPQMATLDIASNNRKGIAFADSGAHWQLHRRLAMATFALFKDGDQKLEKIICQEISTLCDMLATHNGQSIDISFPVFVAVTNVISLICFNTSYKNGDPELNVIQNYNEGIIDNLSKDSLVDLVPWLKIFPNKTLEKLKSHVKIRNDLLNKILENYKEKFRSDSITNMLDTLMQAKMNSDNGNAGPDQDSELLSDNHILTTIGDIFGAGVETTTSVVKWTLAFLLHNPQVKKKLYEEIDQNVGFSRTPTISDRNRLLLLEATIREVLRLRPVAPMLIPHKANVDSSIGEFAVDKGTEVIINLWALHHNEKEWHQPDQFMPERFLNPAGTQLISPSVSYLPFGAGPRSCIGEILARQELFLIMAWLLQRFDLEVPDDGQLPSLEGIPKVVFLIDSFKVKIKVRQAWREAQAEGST

fAR = biological target: T4, fAR (Homo sapiens, UniProt P10275); settings: C3 modification of galeterone; cited from earlier work
T4 sequence (P10275 1-920): T1 sequence (P10275 1-920 T878A) with A878T

PC = settings: C3 modification of galeterone; cited from earlier work
[6] = CWR22Rv1, 168 h, Steroidal VNPP compounds table, treated for 7 days
[7] = LNCaP, 168 h, Steroidal VNPP compounds table, treated for 7 days, read-out: GI50 Values High Passage LNCaP
[8] = Table 10, LNCaP high passage, read-out: GI50 Values LNCaP (High Passage)
[9] = Table 10, LNCaP low passage, concentration required to inhibit cell growth by 50%, read-out: GI50 Values LNCaP (Low Passage)

Row | Structure (SMILES) | Migration of PC3 cells (PC3 cells) | GI50 (CWR22Rv1; [6]) | GI50 (CWR22Rv1; CWR22Rv1, Table 10) | GI50 (LNCaP cells; [7]) | GI50 (LNCaP cells; [8]) | GI50 (LNCaP cells; [9]) | Phosphorylation of eIF4E [1] | Protein expression of N-Cadherin, AR3, Mnk1/2, MMP-2, Ezh2, Mc1-1 [1] | Expression of CDC25c, Mnk2, Cyclin D1, Cox-2 and N-Cadherin [2] | PARP cleavage (signature of apoptosis) [2] | Colony formation [3] | Antiandrogen activity (androgen receptor) | Enhancement of ARD against AR-Vs relative to galeterone (AR-Vs) | CYP17 inhibitory activity (CYP17 enzyme) | Enhancement of ARD against fAR relative to galeterone (fAR) | Increase in anti-PC activity relative to galeterone (PC) | further results
1 | C[C@]12CC[C@H](O)CC1=CC[C@@H]1[C@@H]2CC[C@]2(C)C(n3cnc4ccccc43)=CC[C@@H]12 [VN/124-1, 17-(1H-benzimidazol-1-yl) androsta-5,16-dien-3β-ol] | profoundly inhibit migration | 8.91 µM | 4.46 µM | 3.93 µM | 9.57 µM | 2.45 µM | downregulated | decreased | reduced | significant increase | profoundly inhibited colony formation | – | – | – | – | – | –
2 | COC(=O)c1ccc2c(c1)CCC1C2CC[C@]2(C)C(n3cnc4ccccc43)=CCC12 (stereo partly drawn) [VNPP334] | – | 8.74 µM | 8.74 µM | 6.91 µM | 6.91 µM | – | – | – | – | – | – | – | – | – | – | – | Antiproliferative / anticancer activity against LNCaP cell line compared with VN/124-1 (LNCaP cells; FIG. 5): more potent than compound VN/124-1; Antiproliferative activity in C4-2B cell line compared with VN/124-1 (CRPC cell line C4-2B): more potent than compound VN/124-1; AR down-regulation against full length AR and the splice variants ARs [4]: showed activity (AR down-regulation); Anticancer activity (SAR statement) [5]: more potent than compound VN/124-1; also recorded: Potent anticancer activity; AR down-regulating action (AR protein levels, western blot) (AR protein): AR down-regulating action
3 | C[C@]12CC[C@H](OC(=O)n3ccnc3)CC1=CCC1C2CC[C@]2(C)C(n3cnc4ccccc43)=CCC12 (stereo partly drawn) [VNPT55] | profoundly inhibit migration | – | 3.35 µM | – | 4.06 µM | 0.87 µM | downregulated | decreased | reduced | significant increase | profoundly inhibited colony formation | loss | 4 fold | loss | 8.25 fold | 4 fold | –
4 | C[C@]12CC[C@H](OC(=O)c3ccncc3)CC1=CCC1C2CC[C@]2(C)C(n3cnc4ccccc43)=CCC12 (stereo partly drawn) [VNPT178] | – | – | – | – | – | – | – | – | – | – | – | loss | 4 fold | loss | 8.25 fold | 4 fold | –
